Where two headings read alike, the source gives them in different places.
What was measured:
[1] = tested on: C2C12 cells; assay: Glucose uptake assay (2-NBDG, flow cytometry) in C2C12 cells; type: cell-based; conditions: 2 h 10 mM cytochalasin B
Protocol: To evaluate the impact of avarone (2) on the insulin signaling pathway, C2C12 cells were plated on P35 dishes and grown until 70% confluence. Then, cells were washed with phosphate-buffered saline (PBS) and incubated for 24 h in the presence of a starvation medium (DMEM high glucose containing 2 mM glutamine, 100 U/mL of penicillin, and 100 μg/mL of streptomycin). After this time, cells were stimulated for 30 min with 10 nM insulin (Humulin R, Ely Lilly, Italy) with avarone (2) or the insulin-avarone combination. After this time, cells were washed with cold PBS and lysed using 100 µL of 1X Laemmli sample buffer solution (50 mM Tris-HCl pH 6.8, 2% SDS, 10% glycerol, 1% β-mercaptoethanol, 12.5 mM EDTA, 0.02% bromophenol blue). Cell proteins were withdrawn, transferred in an Eppendorf tube and boiled for 5 min. All samples were stored at −20 °C before the analysis. Analysis of samples was carried out using SDS-PAGE; after electrophoresis, proteins were transferred on a PVDF membrane by Western blot. Phosphorylation levels of the insulin receptor β chain and of the kinase Akt were evaluated using specific antibodies: IR β subunit, clone CT-3 (MABS65) was from Santa Cruz Biotechnology (Santa Cruz, CA, USA); pIR β subunit, Y1162/1163 (sc-25103-R) was from Merck-Millipore (Burlington, MA, USA). Akt (9272S) and p-Akt (9271S) antibodies were from Cell Signaling Technology (Danvers, MA, USA). Finally, β-actin and clone C-4 (sc-47778) were from Merck-Millipore (Burlington, MA, USA). Anti-rabbit and anti-mouse secondary antibodies were from Santa Cruz Biotechnology (Santa Cruz, CA, USA). Detection was performed using Clarity western ECL substrates (BioRad Laboratories, Inc. 1000 Alfred Nobel DriveHercules, CA, USA). Quantitation of the images obtained was carried out using iBright Analysis Software (Thermo Fisher Scientific 168 Third Avenue Waltham, MA, USA, 02451). Glucose uptake was evaluated as previously described. […] Intrinsic and 2-NBDG-derived cell fluorescences were determined using a flow cytometer (FACSCanto II, BD Biosciences, San Jose, CA, USA). […] Quantitative analysis was carried out using FlowJo software (FlowJo^TM v10. BD FlowJo™ Software for Windows Version 10. Ashland, OR: Becton, Dickinson and Company; 2021).
Figure 8 Glucose uptake assay. […] After, cells were washed with PBS, detached using trypsin, collected by centrifugation, and analyzed using a flow cytometer (FACSCanto II, BD Biosciences). […] For each experiment, 10,000 events were analyzed. […] (B) Quantitation of fluorescence levels. […]
Figure 9 Impact of cytochalasin B on avarone-induced glucose uptake. […] After, cells were washed and incubated for 3 h with 40 µM 2-NBDG and then analyzed using a flow cytometer (FACSCanto II, BD Biosciences). For each experiment, 10,000 events were analyzed. […]

[2] = biological target: T1, Human PTP1B (Homo sapiens, UniProt P18031); design: polyHis (N); made in house; conditions: cited from earlier work; for IC50: IC50 ± SD
T1 sequence (P18031 1-302): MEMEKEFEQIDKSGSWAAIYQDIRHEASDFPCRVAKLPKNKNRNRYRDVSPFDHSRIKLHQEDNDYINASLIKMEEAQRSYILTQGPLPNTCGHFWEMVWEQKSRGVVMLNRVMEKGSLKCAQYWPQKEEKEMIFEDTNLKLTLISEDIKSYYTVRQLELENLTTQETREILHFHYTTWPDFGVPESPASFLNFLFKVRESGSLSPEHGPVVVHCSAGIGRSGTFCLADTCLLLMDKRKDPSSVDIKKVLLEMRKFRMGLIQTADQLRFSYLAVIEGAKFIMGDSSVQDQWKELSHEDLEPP

[3] = tested on: C2C12 cells; assay: Seahorse XFe96 Mito Stress Test in C2C12 cells; type: cell-based; conditions: affecting maximal respiration and ATP production-linked oxygen consumption
Protocol: C2C12 cells (3 × 10^4 cells/well) were placed in XFe96 cell culture plates. After 24 h of incubation at 37 °C, cell growth medium was substituted with an XF base medium supplemented with 2 mM glutamine, 1 mM sodium pyruvate, and 10 mM glucose, pH 7.4. The plate was then transferred in a non-CO2 incubator for 1 h at 37 °C to pre-equilibrate the cells before analysis. An XF Mito Stress Test was performed to assay the cells’ ability to exploit mitochondrial oxidative metabolism, according to the manufacturer’s instructions. The oxygen consumption rate (OCR) was evaluated after the injection of a sequence of compounds that interfere with the electron transport chain: oligomycin (1 μM), carbonyl cyanide-4 (trifluoromethoxy) phenylhydrazone (FCCP) (1 μM), and Rotenone/Antimycin A (0.5 μM). All data were normalized on the protein content of each well.
Figure 10 Results of Mito Stress Test assay. (A) C2C12 cells were subjected to Seahorse XFe96-Mito Stress Test analysis to evaluate oxygen consumption rate (OCR) in real time. OCR values were normalized on protein content. (B) Basal respiration, ATP-linked OCR, spare capacity, maximal respiration, and proton leak were calculated using data obtained from OCR plot after the administration of the adenosine triphosphate ATP synthase inhibitor oligomycin, the proton uncoupler carbonylcyanide p-trifluoromethoxyphenylhydrazone (FCCP), and the combination of the respiratory complex I inhibitor rotenone and the respiratory complex III inhibitor antimycin A. Each point reported in the OCR plot represents the medium value ± SEM obtained from independent replicates (n = 3 or 4). One-way ANOVA with Dunnett’s correction was used to assess differences in experimental features by using Prism 8 software (GraphPad). Statistical significance is annotated as follows: * p ≤ 0.01, ** p ≤ 0.001, *** p ≤ 0.0001, (t-test); ns, not significant; FC, fold change.

[4] = biological target: T2, human recombinant AKR1B1 (Homo sapiens, UniProt P15121); design: method as in Demir et al. [17]; conditions: ref Demir et al. [17]; cited from earlier work
T2 construct: made in house

[5] = biological target: T2, human recombinant AKR1B1; assay: AKR1B1 inhibition assay with L-idose as substrate, NADPH oxidation (IC50); type: biochemical; conditions: 10 mU AKR1B1, 1.6 mM L-idose, 37 °C; IC50 ± SD
Protocol: (§1) The purification of human recombinant AKR1B1 was performed as previously described. […] The purified enzyme, stored at −80 °C in 10 mM sodium phosphate buffer pH 7.0 containing 2 mM DTT and 30% (w/v) glycerol, was extensively dialyzed against 10 mM sodium phosphate buffer pH 7.0 before use. […] The fractions containing PTP1B were collected, concentrated, and injected into a Superdex G75 column equilibrated with Tris-HCl buffer pH 8.0 containing 150 mM NaCl and 1 mM mercaptoethanol. The fractions containing PTP1B were collected and concentrated; the purity of preparation was evaluated using SDS-PAGE. The PTP1B preparation was split into fractions of 0.5 mL volume; each fraction was stored at −80 °C.
(§2) The standard assay mixture (final volume 0.7 mL) was contained in 0.25 M sodium phosphate buffer pH 6.8, 0.18 mM NADPH, 0.4 M ammonium sulfate, 0.5 mM EDTA, and 4.7 mM GAL. One unit of enzyme activity is the amount of enzyme that catalyzes the conversion of 1 µmol of substrate/min in the above assay conditions. The same assay conditions were adopted in the inhibition studies using L-idose as the substrate at the indicated concentrations. PTP1B activity was determined using p-nitrophenylphosphate (pNPP) as the synthetic substrate. The pNPP was dissolved in 0.075 M ββ-dimethylglutarate buffer, pH 7.0, containing 1 mM dithiothreitol. Each assay was carried out at 37 °C in 1 mL of assay buffer. The reactions were started by diluting an aliquot of PTP1B preparation in the assay buffer; after 30 min, the reactions were stopped by adding 2 mL of 0.2 M KOH solution. The amount of p-nitrophenol released was determined spectrophotometrically, reading the absorbance of solutions at 400 nm (ε400nm = 18 mM^−^1cm^−^1).

[6] = biological target: T1, Human PTP1B; assay: PTP1B inhibition assay with pNPP as substrate (IC50); type: biochemical; design: polyHis (N); made in house; conditions: 2.5 mM pNPP, 37 °C; IC50 ± SD
Protocol: as §1, §2

[7] = tested on: 3T3-L1 cells; design: method as in PMID 19262557, PMID 19091557; conditions: ref [24],[27]; cited from earlier work

C=C1[C@@H](C)[C@H]2[C@H](Cc3ccccc3)NC(=O)[C@]23OC(=O)/C=C/[C@H](O)CCC[C@@H](C)C/C=C/[C@H]3[C@@H]1O [Cytochalasin B, cytochalasin B, reference compound]
effect of preincubation on insulin-stimulated glucose uptake ([1]; then 10 nM insulin 30 min): strongly affects insulin-stimulated glucose uptake | effect of preincubation on avarone-mediated glucose uptake ([1]; then 25 µM avarone 30 min): abolishes the avarone-mediated glucose uptake

21-dehydroxybolinaquinone [21-dehydroxybolinaquinone (6)]
IC50 ([2]; ref Li et al. [27]): 39.5 µM

N#C/C(=C\c1cn(-c2ccccc2)c2ccccc12)C(=O)O [UK5099, reference compound]
mitochondrial respiration (OCR) [3]: significant reduction in mitochondrial respiration

O=C1C=CC(=O)C=C1 [p-benzoquinone]
IC50 [4]: 1.93 µM | IC50 ([2]; ref Zhang et al. [24]): 38.9 ± 5.2 µM

CC1=CCC[C@H]2[C@](C)(Cc3cc(O)ccc3O)[C@@H](C)CC[C@]12C [avarol (1), avarol]
IC50 [5]: 0.52 ± 0.19 µM | IC50 [6]: 42.2 ± 18 µM

CNC1=CC(=O)C=C(C[C@]2(C)[C@@H](C)CC[C@]3(C)C(C)=CCC[C@@H]23)C1=O [3-methylaminoavarone (3), 3-(methylamino)avarone]
IC50 [5]: 73 ± 15 µM | IC50 [6]: 15.2 ± 2.1 µM

dysidine [dysidine (5)]
glucose uptake in 3T3-L1 cells [7]: increase glucose uptake | IC50 ([2]; ref Li et al. [27]): 6.7 ± 0.1 µM | selectivity over other PTPs (TC-PTP and CD45) ([2]; ref [24],[27]): moderate selectivity | type of PTP1B inhibition ([2]; ref [24],[27]): reversible slow-binding PTP1B inhibitor

CNC1=CC(=O)C(C[C@]2(C)[C@@H](C)CC[C@]3(C)C(C)=CCC[C@@H]23)=CC1=O [4-methylaminoavarone (4), 4-(methylamino)avarone]
IC50 [5]: 62 ± 8 µM | IC50 [6]: 21.6 ± 1 µM
